Reference: patent publication US8236512B1, “Methods of developing terpene synthase variants” (Amyris, Inc., priority 2011, dated 2012)

Biological target: Artemisia annua β-farnesene synthase (SEQ ID NO: 111) variant FS_C_8 F11S/V24D/L18I/M35T/T196S/Y288F/T319S/R348K/T385A/I434T/T446N/I460V/V467I (parent coding se (Artemisia annua, UniProt Q9FXY7))
Assay: Steady-state kinetics of purified farnesene synthase variant FS_C_8
Assay type: biochemical
Details: purified enzyme

Sequence of Artemisia annua β-farnesene synthase (SEQ ID NO: 111) variant FS_C_8 F11S/V24D/L18I/M35T/T196S/Y288F/T319S/R348K/T385A/I434T/T446N/I460V/V467I (parent coding se (Q9FXY7 whole entry F11S/L18I/V24D/M35T/T196S/Y288F/T319S/R348K): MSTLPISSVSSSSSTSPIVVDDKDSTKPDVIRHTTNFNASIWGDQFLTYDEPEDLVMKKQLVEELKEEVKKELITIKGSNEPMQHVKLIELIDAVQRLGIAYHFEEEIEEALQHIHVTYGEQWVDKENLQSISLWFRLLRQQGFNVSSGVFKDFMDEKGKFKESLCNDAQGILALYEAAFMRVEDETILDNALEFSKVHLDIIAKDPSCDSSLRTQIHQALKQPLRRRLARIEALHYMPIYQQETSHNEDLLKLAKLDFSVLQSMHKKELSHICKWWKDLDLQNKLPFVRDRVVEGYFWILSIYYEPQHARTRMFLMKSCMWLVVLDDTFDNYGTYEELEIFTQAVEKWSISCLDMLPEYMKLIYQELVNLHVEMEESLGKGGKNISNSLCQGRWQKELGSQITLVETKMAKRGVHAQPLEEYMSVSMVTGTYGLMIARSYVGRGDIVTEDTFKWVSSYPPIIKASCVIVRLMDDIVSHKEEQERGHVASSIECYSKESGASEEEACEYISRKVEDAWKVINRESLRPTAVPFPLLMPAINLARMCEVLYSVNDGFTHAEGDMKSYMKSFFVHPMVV

## CC(C)=CCC/C(C)=C/CC/C(C)=C/CO[P@@](=O)(O)OP(=O)(O)O (stereo in doubt) [FPP, farnesyl diphosphate]
  Km: 1.55 ± 0.76 µM
